US20090018111A1, “Novel Antimicrobial Medicament” (priority 2004, published 2009)
Read-outs that look alike come from different tables or passages of the source.

Key:
P. mirabiris GN2425 = experiment: Sensitivity test (agar dilution); assay type: cell-based, Proteus mirabilis; details: Proteus mirabilis, P. mirabiris GN2425
Procedure: (§1) The antibacterial activities were tested against various 18 bacteria (27 standard strains) which are representative bacteria caused clinically infectious disease (Staphylococcus aureus 3 strains, Staphylococcus epidermidis 1 strain, Micrococcus luteus 1 strain, Streptococcus pyogenes 1 strain, Enterococcus faecalis 1 strain, Enterococcus faecium 1 strain, Bacillus subtilis 1 strain, Escherichia coli 3 strains, Klebsiella pneumoniae 1 strain, Proteus mirabilis 1 strain, Proteus vulgaris 2 strains, Pseudomonas aeruginosa 3 strains, Serratia marcescens 2 strains, Enterobacter aerogenes 1 strain, Stenotrophomonas maltophilia 1 strain, Enterobacter cloacae 1 strain, Citrobacter freundii 1 strain, Moraxella catarrhalis 2 strains).
(§2) According to the standard method of Japan Chemotherapeutic Society (Chemotherapy, vol. […], p 76-79 (1981)) the test was carried out using the agar dilution method. After dissolving test samples in distilled water, agar medium containing the test samples was prepared in such a manner that the final concentration became twice serial dilution by pouring serially diluted combination drug solution or a single drug solution into agar medium. As agar medium was used Mueller Hinton Agar medium (MHA). Then, each strain was cultivated over night at 37° C. in an incubator and suspended in buffered saline solution with gelatin (BSG) in the concentration of about 10^6 CFU/ml. The suspension (about 5 μl) containing test strains was inoculated to the medium containing the test samples by Micro Planter.
(§3) When the sample is subjected to sensitivity test, this mixed solution was diluted by twice serial dilution method.
(§4) Furthermore, when the drug is solely used, each test sample was used as it is, and diluted by twice serial dilution method from the maximum concentration to the minimum concentration.
(§5) FIC index based on MIC value was calculated. […] Namely, when FIC index calculated by the following formula is equal or less than 1, the enhanced effect of the combination drug in said ratio is considered as positive. When FIC index is over 1, the enhanced effect of the combination drug in said ratio is considered as negative.
(§6) Formula of FIC index: FIC index=(MIC of Drug A in combination/MIC of Drug A alone)+(MIC of Drug B in combination/MIC of Drug B alone) N.C. in tables means being not calculated.

P. aeruginosa TL-2667 = experiment: Sensitivity test (agar dilution); assay type: cell-based, Pseudomonas aeruginosa; details: Pseudomonas aeruginosa, P. aeruginosa TL-2667
Procedure: as §1, §2, §3, §4, §5, §6

P. aeruginosa IFO3451 = experiment: Sensitivity test (agar dilution); assay type: cell-based, Pseudomonas aeruginosa; details: Pseudomonas aeruginosa, P. aeruginosa IFO3451
Procedure: as §1, §2, §3, §4, §5, §6

E. faecalis ATCC19433 = experiment: Sensitivity test (agar dilution); assay type: cell-based, Enterococcus faecalis; details: Enterococcus faecalis, E. faecalis ATCC19433
Procedure: as §1, §2, §3, §4, §5, §6

E. coli NIHJ JC-2 = experiment: Sensitivity test (agar dilution); assay type: cell-based, Escherichia coli; details: Escherichia coli, E. coli NIHJ JC-2
Procedure: as §1, §2, §3, §4, §5, §6

E. coli ML1410 = experiment: Sensitivity test (agar dilution); assay type: cell-based, Escherichia coli; details: Escherichia coli, E. coli ML1410
Procedure: as §1, §2, §3, §4, §5, §6

E. aerogenes ATCC13048 = experiment: Sensitivity test (agar dilution); assay type: cell-based, Enterobacter aerogenes; details: Klebsiella aerogenes, E. aerogenes ATCC13048
Procedure: as §1, §2, §3, §4, §5, §6

M. luteus ATCC9341 = experiment: Sensitivity test (agar dilution); assay type: cell-based, Micrococcus luteus; details: Micrococcus luteus, M. luteus ATCC9341
Procedure: as §1, §2, §3, §4, §5, §6

B. subtilis ATCC6633 = experiment: Sensitivity test (agar dilution); assay type: cell-based, Bacillus subtilis; details: Bacillus subtilis, B. subtilis ATCC6633
Procedure: as §1, §2, §3, §4, §5, §6

E. coli ML1410 RP4 = experiment: microbe, parasite or virus in culture; assay type: cell-based, Escherichia coli; details: Escherichia coli, E. coli ML1410 RP4
Procedure: as §1, §2, §3, §4, §5, §6

S. marcescens GN6473 = experiment: Sensitivity test (agar dilution); assay type: cell-based, Serratia marcescens; details: Serratia marcescens, S. marcescens GN6473
Procedure: as §1, §2, §3, §4, §5, §6

S. marcescens X 100 = experiment: Sensitivity test (agar dilution); assay type: cell-based, Serratia marcescens; details: Serratia marcescens, S. marcescens X 100
Procedure: as §1, §2, §3, §4, §5, §6

K. pneumoniae ATCC10031 = experiment: Sensitivity test (agar dilution); assay type: cell-based, Klebsiella pneumoniae; details: Klebsiella pneumoniae, K. pneumoniae ATCC10031
Procedure: as §1, §2, §3, §4, §5, §6

[1] = GN2425, drug alone, read-out: MIC alone
[2] = TL2667, drug alone, read-out: MIC alone
[3] = IFO3451, drug alone, read-out: MIC alone
[4] = ATCC19433, drug alone, read-out: MIC alone
[5] = NIHJJC2, drug alone, read-out: MIC alone
[6] = ML1410, drug alone, read-out: MIC alone
[7] = ATCC13048, drug alone, read-out: MIC alone
[8] = ATCC9341, drug alone, read-out: MIC alone
[9] = ATCC6633, drug alone, read-out: MIC alone
[10] = ML1410RP4, read-out: MIC alone, drug alone
[11] = GN6473, drug alone, read-out: MIC alone
[12] = X100, drug alone, read-out: MIC alone
[13] = ATCC10031, drug alone, read-out: MIC alone

Structure (SMILES)	MIC (P. mirabiris GN2425; [1])	MIC (P. aeruginosa TL-2667; [2])	MIC (P. aeruginosa IFO3451; [3])	MIC (E. faecalis ATCC19433; [4])	MIC (E. coli NIHJ JC-2; [5])	MIC (E. coli ML1410; [6])	MIC (E. aerogenes ATCC13048; [7])	MIC (M. luteus ATCC9341; [8])	MIC (B. subtilis ATCC6633; [9])	MIC (E. coli ML1410 RP4; [10])	MIC (S. marcescens GN6473; [11])	MIC (S. marcescens X 100; [12])	MIC (K. pneumoniae ATCC10031; [13])	also measured
C[C@H]1[C@H](NC(=O)/C(=N\OC(C)(C)C(=O)O)c2csc(N)n2)C(=O)N1S(=O)(=O)O [AZT, aztreonam]	0.004 µg/mL	2 µg/mL	2 µg/mL	> 32 µg/mL	0.063 µg/mL	0.125 µg/mL	0.063 µg/mL	16 µg/mL	> 32 µg/mL	0.125 µg/mL	0.125 µg/mL	0.063 µg/mL	0.004 µg/mL	MIC (P. mirabiris GN2425; GN2425, Concomitant (AZT:SM = 1:1), read-out: MIC concomitant): 0.004 µg/mL; MIC (P. aeruginosa TL-2667; TL2667, Concomitant (AZT:SM = 1:1), read-out: MIC concomitant): 8 µg/mL; MIC (P. aeruginosa IFO3451; IFO3451, Concomitant (AZT:SM = 1:1), read-out: MIC concomitant): 2 µg/mL; MIC (E. faecalis ATCC19433; ATCC19433, Concomitant (AZT:SM = 1:1), read-out: MIC concomitant): 1 µg/mL; MIC (E. coli NIHJ JC-2; NIHJJC2, Concomitant (AZT:SM = 1:1), read-out: MIC concomitant): 0.063 µg/mL; MIC (E. coli ML1410; ML1410, Concomitant (AZT:SM = 1:1), read-out: MIC concomitant): 0.063 µg/mL; MIC (E. aerogenes ATCC13048; ATCC13048, Concomitant (AZT:SM = 1:1), read-out: MIC concomitant): 8 µg/mL; MIC (M. luteus ATCC9341; ATCC9341, Concomitant (AZT:SM = 1:1), read-out: MIC concomitant): ≤ 0.002 µg/mL; MIC (B. subtilis ATCC6633; ATCC6633, Concomitant (AZT:SM = 1:1), read-out: MIC concomitant): ≤ 0.002 µg/mL; MIC (E. coli ML1410 RP4; ML1410RP4, read-out: MIC concomitant, Concomitant (AZT:SM = 1:1)): 0.063 µg/mL; MIC (S. marcescens GN6473; GN6473, Concomitant (AZT:SM = 1:1), read-out: MIC concomitant): 0.25 µg/mL; MIC (S. marcescens X 100; X100, Concomitant (AZT:SM = 1:1), read-out: MIC concomitant): 0.031 µg/mL; MIC (K. pneumoniae ATCC10031; ATCC10031, Concomitant (AZT:SM = 1:1), read-out: MIC concomitant): 0.004 µg/mL
C[C@@H](O)[C@H]1C(=O)N2C(C(=O)[O-])=C(SC3Cn4cnc[n+]4C3)[C@H](C)[C@H]12 (stereo partly drawn) [BIPM, biapenem]	0.25 µg/mL	8 µg/mL	0.25 µg/mL	4 µg/mL	0.031 µg/mL	0.25 µg/mL	0.125 µg/mL	0.125 µg/mL	0.031 µg/mL	0.25 µg/mL	0.125 µg/mL	0.063 µg/mL	0.031 µg/mL	MIC (P. mirabiris GN2425; GN2425, Concomitant (BIPM:SM = 1:1), read-out: MIC concomitant): 0.125 µg/mL; MIC (P. aeruginosa TL-2667; TL2667, Concomitant (BIPM:SM = 1:1), read-out: MIC concomitant): 4 µg/mL; MIC (P. aeruginosa IFO3451; IFO3451, Concomitant (BIPM:SM = 1:1), read-out: MIC concomitant): 0.25 µg/mL; MIC (E. faecalis ATCC19433; ATCC19433, Concomitant (BIPM:SM = 1:1), read-out: MIC concomitant): 1 µg/mL; MIC (E. coli NIHJ JC-2; NIHJJC2, Concomitant (BIPM:SM = 1:1), read-out: MIC concomitant): 0.031 µg/mL; MIC (E. coli ML1410; ML1410, Concomitant (BIPM:SM = 1:1), read-out: MIC concomitant): 0.063 µg/mL; MIC (E. aerogenes ATCC13048; ATCC13048, Concomitant (BIPM:SM = 1:1), read-out: MIC concomitant): 0.063 µg/mL; MIC (M. luteus ATCC9341; ATCC9341, Concomitant (BIPM:SM = 1:1), read-out: MIC concomitant): 0.004 µg/mL; MIC (B. subtilis ATCC6633; ATCC6633, Concomitant (BIPM:SM = 1:1), read-out: MIC concomitant): ≤ 0.002 µg/mL; MIC (E. coli ML1410 RP4; ML1410RP4, read-out: MIC concomitant, Concomitant (BIPM:SM = 1:1)): 0.125 µg/mL; MIC (S. marcescens GN6473; GN6473, Concomitant (BIPM:SM = 1:1), read-out: MIC concomitant): 0.125 µg/mL; MIC (S. marcescens X 100; X100, Concomitant (BIPM:SM = 1:1), read-out: MIC concomitant): 0.063 µg/mL; MIC (K. pneumoniae ATCC10031; ATCC10031, Concomitant (BIPM:SM = 1:1), read-out: MIC concomitant): 0.016 µg/mL
CC(C)(O/N=C(\C(=O)N[C@@H]1C(=O)N2C(C(=O)[O-])=C(C[n+]3ccccc3)CS[C@H]12)c1csc(N)n1)C(=O)O [CAZ, ceftazidime]	0.063 µg/mL	1 µg/mL	1 µg/mL	> 32 µg/mL	0.25 µg/mL	0.25 µg/mL	0.5 µg/mL	1 µg/mL	2 µg/mL	0.5 µg/mL	0.5 µg/mL	0.25 µg/mL	0.031 µg/mL	MIC (P. mirabiris GN2425; GN2425, Concomitant (CAZ:SM = 1:1), read-out: MIC concomitant): 0.031 µg/mL; MIC (P. aeruginosa TL-2667; TL2667, Concomitant (CAZ:SM = 1:1), read-out: MIC concomitant): 8 µg/mL; MIC (P. aeruginosa IFO3451; IFO3451, Concomitant (CAZ:SM = 1:1), read-out: MIC concomitant): 2 µg/mL; MIC (E. faecalis ATCC19433; ATCC19433, Concomitant (CAZ:SM = 1:1), read-out: MIC concomitant): 1 µg/mL; MIC (E. coli NIHJ JC-2; NIHJJC2, Concomitant (CAZ:SM = 1:1), read-out: MIC concomitant): 0.063 µg/mL; MIC (E. coli ML1410; ML1410, Concomitant (CAZ:SM = 1:1), read-out: MIC concomitant): 0.063 µg/mL; MIC (E. aerogenes ATCC13048; ATCC13048, Concomitant (CAZ:SM = 1:1), read-out: MIC concomitant): 8 µg/mL; MIC (M. luteus ATCC9341; ATCC9341, Concomitant (CAZ:SM = 1:1), read-out: MIC concomitant): ≤ 0.002 µg/mL; MIC (B. subtilis ATCC6633; ATCC6633, Concomitant (CAZ:SM = 1:1), read-out: MIC concomitant): ≤ 0.002 µg/mL; MIC (E. coli ML1410 RP4; ML1410RP4, read-out: MIC concomitant, Concomitant (CAZ:SM = 1:1)): 0.125 µg/mL; MIC (S. marcescens GN6473; GN6473, Concomitant (CAZ:SM = 1:1), read-out: MIC concomitant): 0.5 µg/mL; MIC (S. marcescens X 100; X100, Concomitant (CAZ:SM = 1:1), read-out: MIC concomitant): 0.125 µg/mL; MIC (K. pneumoniae ATCC10031; ATCC10031, Concomitant (CAZ:SM = 1:1), read-out: MIC concomitant): 0.008 µg/mL
